Experiments:
NQO1 protein = NQO1 protein (Homo sapiens, UniProt P15559); assay: NQO1 activity measurement (cytochrome C reduction); format: biochemical; details: 5 ng NQO1 protein, 200 μM NADH, 77 μM cytochrome C, 37° C., absorbance 550 nm for 10 minutes
C57BLKS/J db/db mice = assay: Weight loss effects and blood sugar in diabetic mice (db/db); format: in vivo; details: four weeks, vs 0.1% SLS controls
Method: 7 week-old C57BLKS/J db/db mice (chales river laboratories Japan, Inc) having genetic diabetic characteristics available from ORIENTBIO were prepared. Two mice were raised in each polycarbonate breeding cage (200 W×260 L×130H (mm), Three-shine) in which temperature was 22 to 24° C., relative humidity was 30 to 50%, illuminance was 150 to 300 lux, night and day were 12 hours, and exhaust was performed at 10 to 15 air changes per hour. As a feed, low fat diet (11.9 kcal % fat, 5053, Labdiet) manufactured by ORIENTBIO was used. The feed was contained in a feeder and free intake was allowed. As drinking water, water, which was contained in a 250 mL polycarbonate based bottle, purified through a filter and a sterilizer was used and free intake was allowed.
The compound according to Example 1 synthesized in the present invention was orally administered to three C57BLKS/J db/db mice in amounts of 40 mg/kg, 80 mg/kg, and 120 mg/kg, respectively, once every day for four weeks. For administration, a disposable syringe fitted with a sonde for oral administration was used and 10 ml/kg of the compound was orally administered into the stomach. As controls, three C57BLKS/J db/db mice were administered 0.1% SLS in an amount of 120 mg/kg in the same manner as described above. After administration, a time-dependent weight increase ratio, weight change, and intake amount were measured and results are illustrated in FIG. 7 below. In addition, blood sugar was measured and results are illustrated in FIG. 8 below.
Weights of the experimental animals were measured immediately before administration of a test material and six times a week from an administration initiation day to a test termination day. Increased total weights were calculated by subtracting weights measured on an experiment initiation day from weights measured one day before an experiment termination day. Food intake amounts were calculated by measuring feed supply amounts and remaining amounts twice a week from an initiation day of test material administration to a test termination day for each individual. Blood sugar was measured before an administration initiation day of the test material and once a week between an administration initiation day and a test termination day.

[1] = Exp. Ex. 4, FIG. 7: 7 week-old db/db mice, 40, 80, 120 mg/kg oral once every day

Chain of NQO1 protein (P15559 whole entry, species assumed): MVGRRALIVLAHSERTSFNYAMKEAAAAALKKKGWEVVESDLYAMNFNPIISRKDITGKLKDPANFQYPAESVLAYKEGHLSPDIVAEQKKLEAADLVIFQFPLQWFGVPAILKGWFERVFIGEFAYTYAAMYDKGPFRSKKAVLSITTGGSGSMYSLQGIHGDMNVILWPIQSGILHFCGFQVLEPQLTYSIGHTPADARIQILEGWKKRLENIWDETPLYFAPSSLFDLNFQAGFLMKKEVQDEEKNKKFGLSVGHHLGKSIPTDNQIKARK

CC(C)c1nc2c([nH]1)C(=O)C(=O)c1ccccc1-2 [Example 1, 2-isopropyl-1H-naphtho[2,1-d]imidazole-4,5-dione]
NQO1 activity (5 μM, [nmol cytochrome C reduced/min/μg protein]) (NQO1 protein): 177 nmol cytochrome C reduced/min/μg protein
intake amount (C57BLKS/J db/db mice; [1]): significantly decreased
weight change (C57BLKS/J db/db mice; [1]): significantly decreased
weight increase ratio (C57BLKS/J db/db mice; [1]): significantly decreased
blood sugar amount (C57BLKS/J db/db mice; Exp. Ex. 4, FIG. 8: 7 week-old db/db mice, 40, 80, 120 mg/kg oral once every day, measured once a week): significantly decreased

Reference: US10766882B2, “1,2-naphthoquinone based derivative and method of preparing the same” (YUNGJIN PHARM. CO., LTD., priority 2013, dated 2020)
